# Experimental data published in patent US20070231921A1, “Method and system for determining whether a drug will be effective on a patient with a disease” (priority 2006, published 2007).
# Tests used:
# [1] = test system: Non-Small-Cell Lung Cancer; conditions: NSCLC patients in Asia, compared with Caucasian populations; cited from earlier work
# [2] = test system: Non-Small-Cell Lung Cancer; assay: Response rate of Iressa in Japanese NSCLC patients, without and with filtering by the serum mass spectrometer test; assay type: in vivo, human; conditions: Japanese population
# Method: Continuing with FIG. 3, step 312, learning may be utilized in generating classifiers for a training set of spectra. In the case of sampling serum for detecting whether an anti-cancer drug will be effective on non-small-cell lung cancer, control groups of patients were utilized, including using three sets of patients whose cancer progressed following chemotherapy. Each of the patients was treated with Iressa and information, including survival times, of these patients was recorded. […] Each data set represents the cancer research center from which spectra and associated patient information was received.
# TABLE III is a summary of the data set attributes used in a study to determine whether a classifier algorithm could be effective in determining whether a cancer patient would be responsive to Iressa. Data sets Italian 1, Italian 2, Japan 1, and Japan 2 were treated with Iressa following sample collection. Training and testing in the development phase was done crosswise from the Italian 1 sets and the two Japanese sets. The patient data included survival data, where the Italian set had very complete patient history together with treatment and cancer type, the Japanese sets only included prognostic information relating to the WHO definitions of clinical labels, including stable disease (SD), progressive disease (PD), and partial responders (PR) measured by CT imaging. […]
smiles,measurement,setting,value
"COc1cc2ncnc(Nc3ccc(F)c(Cl)c3)c2cc1OCCCN1CCOCC1 [Iressa, gefitinib]",response rate,[1],considerably higher
same,response rate of Iressa,[2]; after serum based mass spectrometer test filters non-responders from responders,90%
same,response rate of Iressa,[2]; before filtering non-responders from responders,65%
